Measured values taken from patent publication US20080125424A1, “Derivatives of urea and related diamines, methods for their manufacture, and uses therefor” (priority 2006, published 2008).
pEC50: −log10 of the molar value.

Target: T1, human parathyroid cell Ca2+ receptor (hPCaR) (Homo sapiens, UniProt P41180)
T1 construct: expressed in transfected cells
T1 sequence (P41180 20-1078): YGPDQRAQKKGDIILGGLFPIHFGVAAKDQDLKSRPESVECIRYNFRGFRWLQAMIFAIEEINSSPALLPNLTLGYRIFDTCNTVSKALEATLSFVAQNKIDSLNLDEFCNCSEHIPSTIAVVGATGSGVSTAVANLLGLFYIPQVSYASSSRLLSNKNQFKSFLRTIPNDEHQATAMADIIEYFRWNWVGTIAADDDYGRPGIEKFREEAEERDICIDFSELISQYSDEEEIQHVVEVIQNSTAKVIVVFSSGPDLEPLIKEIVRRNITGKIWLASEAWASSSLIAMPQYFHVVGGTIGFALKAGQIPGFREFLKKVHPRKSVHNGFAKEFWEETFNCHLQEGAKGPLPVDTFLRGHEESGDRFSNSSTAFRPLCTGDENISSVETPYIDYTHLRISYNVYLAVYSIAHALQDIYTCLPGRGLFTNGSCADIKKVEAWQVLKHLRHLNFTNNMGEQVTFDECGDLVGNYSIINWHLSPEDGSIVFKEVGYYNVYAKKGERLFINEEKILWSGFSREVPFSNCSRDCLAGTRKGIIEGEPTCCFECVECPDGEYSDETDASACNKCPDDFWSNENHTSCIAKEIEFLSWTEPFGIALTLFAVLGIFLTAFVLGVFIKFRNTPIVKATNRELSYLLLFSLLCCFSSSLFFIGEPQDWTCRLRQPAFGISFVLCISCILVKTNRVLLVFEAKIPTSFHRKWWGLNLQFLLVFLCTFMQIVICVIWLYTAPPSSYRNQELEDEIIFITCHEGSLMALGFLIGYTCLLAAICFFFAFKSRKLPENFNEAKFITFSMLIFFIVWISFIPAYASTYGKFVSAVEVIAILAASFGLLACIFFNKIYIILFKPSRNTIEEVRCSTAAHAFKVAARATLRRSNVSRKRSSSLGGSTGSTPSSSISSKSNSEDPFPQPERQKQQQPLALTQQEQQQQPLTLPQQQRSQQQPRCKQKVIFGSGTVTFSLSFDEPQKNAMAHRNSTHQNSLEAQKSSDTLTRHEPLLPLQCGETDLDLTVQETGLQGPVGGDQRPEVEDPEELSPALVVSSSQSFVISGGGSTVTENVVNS
Test: [Ca2+]i fluorescence assay in HEK 293 4.0-7 cells expressing hPCaR
Format: cell-based
Settings: buffer with 1 mM CaCl2
Method: The activities of the compounds of the present invention on calcium receptors were measured. In one embodiment, the measurement was performed in accordance with the method described in Example 4 of Nemeth et al., PCT/US95/13704 (International Publication No. WO96/12697) herein incorporated by reference.
A 4.0-kb NotI-HindIII fragment of the human parathyroid cell Ca^2+ receptor (hPCaR) cDNA was subcloned into the mammalian expression vector pCEP4 (Invitrogen) containing the hygromycin-resistant gene as a selectable marker. This plasmid was transfected into HEK 293 cells by calcium phosphate precipitation. Transfected cells were grown in Dulbecco's modified Eagle's medium containing 10% fetal bovine serum and hygromycin (200 μg/mL). Hygromycin-resistant colonies were subcloned and assayed for hPCaR mRNA by solution hybridization using a ^32P-labeled RNA probe complementary to the (4.0 kb) hPCaR sequence (Garrett, et al., J. Biol. Chem. 270, 12919-12925 (1995)). Clone 7 was used to assess the effects of compounds on [Ca^2+]i. This stably transfected cell line was termed HEK 293 4.0-7. For measurements of [Ca^2+]i, the cells were recovered from tissue culture flasks by brief treatment with Versene (Invitrogen; Containing 0.2 g/L EDTA.4Na in phosphate-buffered saline) and then seeded in collagen coated 384-well plates (BD Biosciences) at 20K cells per well in the growth media (same as above). Cells were grown in 37c TC incubator overnight. Then, the media was discarded and cells were loaded with 1× dye from Ca^2+ Assay Kit I (BD Biosciences) in parathyroid cell buffer (126 mM NaCl, 4 mM KCl, 1 mM MgSO4, 0.7 mM K2HPO4/KH2PO4, 20 mM HEPES.NaOH (pH 7.45)) containing 0.5% BSA and 1 mM CaCl2. Cells were loaded at room temperature for 90 minutes. Each test compound was added to the cells and the fluorescence was recorded by using excitation and emission wavelengths of 485 and 530 nm, respectively.

Row | SMILES | pEC50
1 | CC1OCCC1NCCN(CCC(c1ccccc1)c1ccccc1)C(=O)Nc1nc2ccccc2s1 (centres unmarked) [Example 157, 3-Benzothiazol-2-yl-1-(3,3-diphenyl-propyl)-1-[2-(2-methyl-tetrahydro-furan-3-ylamino)-ethyl]-urea] | > 7.00
2 | CC(C)(C)OC(=O)N1CCN(C(=O)CCCN(CCC(c2ccccc2)c2ccccc2)C(=O)Nc2nc(-c3ccccc3)cs2)CC1 [Example 96, tert-butyl 4-(4-(1-(3,3-diphenylpropyl)-3-(4-phenylthiazol-2-yl)ureido)butanoyl)piperazine-1-carboxylate] | 6.00 to 7.00
3 | O=C(CCCN(CCC(c1ccccc1)c1ccccc1)C(=O)Nc1nc2ccccc2s1)NC1CCCCC1 [Example 97, 3-(benzo[d]thiazol-2-yl)-1-(4-(cyclohexylamino)-4-oxobutyl)-1-(3,3-diphenylpropyl)urea] | 6.00 to 7.00
4 | O=C(Nc1nc2ccccc2s1)N(CCNC1CCNCC1)CCC(c1ccccc1)c1ccccc1 [Example 143, 3-(benzo[d]thiazol-2-yl)-1-(3,3-diphenylpropyl)-1-(2-(piperidin-4-ylamino)ethyl)urea] | > 7.00
5 | CS(=O)(=O)c1ccc(-c2csc(NC(=O)N(CCCC(=O)O)CCC(c3ccccc3)c3ccccc3)n2)cc1 [Example 79, 4-(1-(3,3-diphenylpropyl)-3-(4-(4-(methylsulfonyl)phenyl)thiazol-2-yl)ureido)butanoic acid] | > 7.00
6 | O=C(CCCN(CCC(c1ccccc1)c1ccccc1)C(=O)Nc1nc2ccccc2s1)N1CCNCC1 [Example 82, 3-(benzo[d]thiazol-2-yl)-1-(3,3-diphenylpropyl)-1-(4-oxo-4-(piperazin-1-yl)butyl)urea] | > 7.00
7 | NC(=O)CCCN(CCC(c1ccccc1)c1ccccc1)C(=O)Nc1nc(-c2ccccc2)c(Cl)s1 [Example 81, 1-(4-amino-4-oxobutyl)-3-(5-chloro-4-phenylthiazol-2-yl)-1-(3,3-diphenylpropyl)urea] | > 7.00
8 | COC(CNCCN(CCC(c1ccccc1)c1ccccc1)C(=O)Nc1nc2ccccc2s1)OC [Example 153, 3-Benzothiazol-2-yl-1-[2-(2,2-dimethoxy-ethylamino)-ethyl]-1-(3,3-diphenyl-propyl)urea] | 6.00 to 7.00
9 | CS(=O)(=O)NCCN(CCC(c1ccccc1)c1ccccc1)C(=O)Nc1nc(-c2ccc(NS(C)(=O)=O)cc2)c(Cl)s1 [Example 139, 3-(5-chloro-4-(4-(methylsulfonamido)phenyl)thiazol-2-yl)-1-(3,3-diphenylpropyl)-1-(2-(methylsulfonamido)ethyl)urea] | > 7.00
10 | CC(=O)N1CCN(C(=O)CCCN(CCC(c2ccccc2)c2ccccc2)C(=O)Nc2nc(-c3ccccc3)cs2)CC1 [Example 84, 1-(4-(4-acetylpiperazin-1-yl)-4-oxobutyl)-1-(3,3-diphenylpropyl)-3-(4-phenylthiazol-2-yl)urea] | > 7.00
11 | CN(C)C(=O)N1CCN(C(=O)CCCN(CCC(c2ccccc2)c2ccccc2)C(=O)Nc2nc3ccccc3s2)CC1 [Example 87, 3-(benzo[d]thiazol-2-yl)-1-(4-(4-(dimethylcarbamoyl)piperazin-1-yl)-4-oxobutyl)-1-(3,3-diphenylpropyl)urea] | > 7.00
12 | CS(=O)(=O)c1ccc(-c2nc(NC(=O)N(CCCC(=O)O)CCC(c3ccccc3)c3ccccc3)sc2Cl)cc1 [Example 72, 4-(3-(5-chloro-4-(4-(methylsulfonyl)phenyl)thiazol-2-yl)-1-(3,3-diphenylpropyl)ureido)butanoic acid] | > 7.00
13 | O=C(CCCN(CCC(c1ccccc1)c1ccccc1)C(=O)Nc1nc(-c2ccccc2)cs1)N[C@H]1CCCNC1 [Example 78, (S)-1-(3,3-diphenylpropyl)-1-(4-oxo-4-(piperidin-3-ylamino)butyl)-3-(4-phenylthiazol-2-yl)urea] | > 7.00
14 | CCOC(=O)C1CC1CNCCN(CCC(c1ccccc1)c1ccccc1)C(=O)Nc1nc2ccccc2s1 (centres unmarked) [Example 152, 2-({2-[3-Benzothiazol-2-yl-1-(3,3-diphenyl-propyl)-ureido]-ethylamino}-methyl)cyclopropanecarboxylic acid ethyl ester] | 5.30 to 6.00
15 | CS(=O)(=O)Nc1ccc(-c2nc(NC(=O)N(CCC(=O)O)CCC(c3ccccc3)c3ccccc3)sc2Cl)cc1 [Example 98, 3-(3-(5-chloro-4-(4-(methylsulfonamido)phenyl)thiazol-2-yl)-1-(3,3-diphenylpropyl)ureido)propanoic acid] | 6.00 to 7.00
16 | O=C(CCN(CCC(c1ccccc1)c1ccccc1)C(=O)Nc1nc(-c2ccccc2)cs1)N[C@H]1CCCNC1 [Example 93, (S)-1-(3,3-diphenylpropyl)-1-(3-oxo-3-(piperidin-3-ylamino)propyl)-3-(4-phenylthiazol-2-yl)urea] | 6.00 to 7.00

Next, values leading:

Row | pEC50 | SMILES
17 | 6.00 to 7.00 | O=C(CCN(CCC(c1ccccc1)c1ccccc1)C(=O)Nc1nc2ccccc2s1)NCc1ccccc1 [Example 117, 3-(benzo[d]thiazol-2-yl)-1-(3-(benzylamino)-3-oxopropyl)-1-(3,3-diphenylpropyl)urea]
18 | 6.00 to 7.00 | O=C(O)CNCCN(CCC(c1ccccc1)c1ccccc1)C(=O)Nc1nc2ccccc2s1 [Example 161, {2-[3-Benzothiazol-2-yl-1-(3,3-diphenyl-propyl)-ureido]-ethylamino}-acetic acid]
19 | 6.00 to 7.00 | O=C(CCN(CCC(c1ccccc1)c1ccccc1)C(=O)Nc1nc2ccccc2s1)N1CCNCC1 [Example 106, 3-(benzo[d]thiazol-2-yl)-1-(3,3-diphenylpropyl)-1-(3-oxo-3-(piperazin-1-yl)propyl)urea]
20 | > 7.00 | CCNC(=O)CCCN(CCC(c1ccccc1)c1ccccc1)C(=O)Nc1nc2ccccc2s1 [Example 85, 3-(benzo[d]thiazol-2-yl)-1-(3,3-diphenylpropyl)-1-(4-(ethylamino)-4-oxobutyl)urea]
21 | 6.00 to 7.00 | O=C(CCN(CCC(c1ccccc1)c1ccccc1)C(=O)Nc1nc2ccccc2s1)N1CCOCC1 [Example 103, 3-(benzo[d]thiazol-2-yl)-1-(3,3-diphenylpropyl)-1-(3-morpholino-3-oxopropyl)urea]
22 | 6.00 to 7.00 | O=C(Nc1nc2ccccc2s1)N(CCO)CCC(c1ccccc1)c1ccccc1 [Example 175, 3-Benzothiazol-2-yl-1-(3,3-diphenylpropyl)-1-(2-hydroxy-ethyl)-urea]
23 | 6.00 to 7.00 | CCOC(=O)CCCN(CCC(c1ccccc1)c1ccccc1)C(=O)Nc1nc2ccccc2s1 [Example 116, ethyl 4-(3-(benzo[d]thiazol-2-yl)-1-(3,3-diphenylpropyl)ureido)butanoate]
24 | 6.00 to 7.00 | NC(=O)CCN(CCC(c1ccccc1)c1ccccc1)C(=O)Nc1nc2ccccc2s1 [Example 109, 1-(3-amino-3-oxopropyl)-3-(benzo[d]thiazol-2-yl)-1-(3,3-diphenylpropyl)urea]
25 | 6.00 to 7.00 | COc1ccc(CNCCN(CCC(c2ccccc2)c2ccccc2)C(=O)Nc2nc3ccccc3s2)cn1 [Example 154, 3-Benzothiazol-2-yl-1-(3,3-diphenyl-propyl)-1-{2-[(6-methoxy-pyridin-3-ylmethyl)amino]-ethyl}-urea]
26 | 5.30 to 6.00 | N#Cc1ccc(S(=O)(=O)NCCN(CCC(c2ccccc2)c2ccccc2)C(=O)Nc2nc3ccccc3s2)cc1 [Example 169, N-{2-[3-Benzothiazol-2-yl-1-(3,3-diphenyl-propyl)-ureido]-ethyl}-4-cyanobenzenesulfonamide]
